Test system: C. albicans ATCC 90028 biofilm
Test: Antifungal biofilm susceptibility testing (MBIC), NCCLS M27-A broth microdilution, CellTiter 96 viability readout
Assay type: cell-based, Candida albicans
Experimental: Materials: Itraconazole EP Micronized (lot number C149307) and PCCA Formula #10342 (4 g of Itraconazole EP Micronized +37.574 g of Poloxamer composition) were provided by PCCA (Houston, Tex., USA) as powders. Itraconazole and PCCA Formula #10342 were prepared on the day of the assay. Fluconazole and amphotericin B were obtained as powders and stored at 4° C. […] Strain: Candida albicans isolate ATCC 90028 was obtained from American Type Culture Collection (Manassas, Va.), and used in the course of this study. Methods: To determine antimicrobial activity of itraconazole and micronized poloxamer composition 202 against biofilms of Candida albicans, an antifungal biofilm susceptibility testing was developed in conditions where a Minimum Biofilm Inhibitory Concentration (MBIC) of itraconazole in a micronized poloxamer composition 202, micronized poloxamer excipient, itraconazole, fluconazole and amphotericin B was measured for the C. albicans biofilm according to the NCCLS M27-A broth microdilution method (NCCLS, 1997). The testing medium used for growing was RPMI 1640 (American Biorganics, Inc., […].) supplemented with L-glutamine (Sigma Aldrich®). […] Cell viability was determined by using CellTiter 96® Non-Radioactive Cell Proliferation Assay (Promega, 2013).

In the case of C[C@@H]1[C@H](O)[C@@H](C)/C=C/C=C/C=C/C=C/C=C/C=C/C=C/[C@H](O[C@@H]2O[C@H](C)[C@@H](O)[C@H](N)[C@@H]2O)C[C@@H]2O[C@](O)(C[C@@H](O)C[C@@H](O)[C@H](O)CC[C@@H](O)C[C@@H](O)CC(=O)O[C@H]1C)C[C@H](O)[C@H]2C(=O)O [Amphotericin B, amphotericin B], the MBIC is reported as 0.5 µg/mL and the “Minimum Biofilm Inhibitory Concentration” value (48 h at 35° C., lowest concentration giving 50% reduction of fungal growth, combination value expressed as concentration of itraconazole) is reported as 0.5 µg/mL.

Reference: US9763934B2, “Synergistic effect of poloxamer-based composition and itraconazole on fungus and yeast” (Professional Compounding Centers of America (PCCA), priority 2014, dated 2017)
